Reference: US5223421A, “Identification of methionine Nα-acetyltransferase” (The General Hospital Corporation, priority 1990, dated 1993)
“Also recorded” adds a separate entry of the source. Where two headings read alike, the source gives them in different places. Values belong to the compound of their own block, whether it stands above or below them. Ends that are not written are not given here.

Experiments:
[1] = tested on: methionine N^α -acetyltransferase from S. cerevisiae; assay: Effect of protein modification reagents on enzyme activity; format: biochemical, Saccharomyces cerevisiae; settings: for Enzyme Activity (%): 30° C. 15 min, then dialyzed, substrate PAI (N=3)
Experimental: (§1) N^α -acetyltransferase activity was determined as previously described [Lee et al., J. Biol. Chem. 263:14948-14955 (1988)]. Aliquots of the lysate or chromatographic fractions were added to 1.5 ml Eppendorf tubes containing a reaction mixture of 50 mM HEPES, pH 7.4, 150 mM KCl, 1 mM DTT, 25 μM [^3 H] acetyl coenzyme A (0.5 μCi) and 50 μM synthetic peptide with an adjusted final volume of 100 μl. The assay mixture was incubated at 30° C. for 30 min. The reaction was stopped by adding 17 μl of 0.5M acetic acid and chilled in an ice bath. The reaction samples were filtered through SP membrane discs (Cuno) (previously pre-swollen in 0.5M acetic acid), and then washed three times with 1 ml of 0.5M acetic acid on a Millipore 1225 sampling manifold. The partially dried membranes were placed in scintillation cocktail and counted with a Beckman LS 3801 scintillation counter. One unit of activity was defined as the amount of enzyme able to transfer 1 pmol of [^3 H] acetyl group from [^3 H] acetyl coenzyme A to synthetic peptide per min under standard enzyme assay conditions defined above.
In order to determine the possible catalytic role for different types of amino acid residues in the enzyme, various chemical modifications were carried out (Table 10). Yeast methionine acetyltransferase was incubated with each reagent at 30° C. for 15 min, dialyzed against 50 mM HEPES, pH 7.4, 150 mM, 1 mM DTT at 4° C. for 3 to 4 hr. The enzyme activity was determined under standard assay conditions using PAI (N=3), assayed as described above.

[2] = tested on: methionine N^α -acetyltransferase from S. cerevisiae; format: biochemical, Saccharomyces cerevisiae; settings: for effect of ion or salt on M-N^α AT activity: concentration not given; for Enzyme Activity (%): 5 min room temperature, 50 mM HEPES pH 7.4, 1 mM DTT, substrate PAI (N=3); for effect of divalent cation on M-N^α AT activity: 1 mM
Experimental: as §1, with “counter.” for “counter. One unit of activity was defined as the amount of enzyme able to transfer 1 pmol of [^3 H] acetyl group from [^3 H] acetyl coenzyme A to synthetic peptide per min under standard enzyme assay conditions defined above.”
Yeast methionine acetyltransferase was incubated in the presence of various divalent cations at a room temperature for 5 min in 50 mM HEPES, pH 7.4 containing 1 mM DTT. The enzyme activity was determined under standard assay conditions using PAI (N=3), as described above.

[3] = target: T1, AAA1 N^α -acetyltransferase (N^α -AT) (Saccharomyces cerevisiae, UniProt P07347+P12945); assay: Relative activity of N^α -AT for N^α -acetylation of synthetic peptides; format: biochemical
T1 sequence (P12945 2-854 limits assumed): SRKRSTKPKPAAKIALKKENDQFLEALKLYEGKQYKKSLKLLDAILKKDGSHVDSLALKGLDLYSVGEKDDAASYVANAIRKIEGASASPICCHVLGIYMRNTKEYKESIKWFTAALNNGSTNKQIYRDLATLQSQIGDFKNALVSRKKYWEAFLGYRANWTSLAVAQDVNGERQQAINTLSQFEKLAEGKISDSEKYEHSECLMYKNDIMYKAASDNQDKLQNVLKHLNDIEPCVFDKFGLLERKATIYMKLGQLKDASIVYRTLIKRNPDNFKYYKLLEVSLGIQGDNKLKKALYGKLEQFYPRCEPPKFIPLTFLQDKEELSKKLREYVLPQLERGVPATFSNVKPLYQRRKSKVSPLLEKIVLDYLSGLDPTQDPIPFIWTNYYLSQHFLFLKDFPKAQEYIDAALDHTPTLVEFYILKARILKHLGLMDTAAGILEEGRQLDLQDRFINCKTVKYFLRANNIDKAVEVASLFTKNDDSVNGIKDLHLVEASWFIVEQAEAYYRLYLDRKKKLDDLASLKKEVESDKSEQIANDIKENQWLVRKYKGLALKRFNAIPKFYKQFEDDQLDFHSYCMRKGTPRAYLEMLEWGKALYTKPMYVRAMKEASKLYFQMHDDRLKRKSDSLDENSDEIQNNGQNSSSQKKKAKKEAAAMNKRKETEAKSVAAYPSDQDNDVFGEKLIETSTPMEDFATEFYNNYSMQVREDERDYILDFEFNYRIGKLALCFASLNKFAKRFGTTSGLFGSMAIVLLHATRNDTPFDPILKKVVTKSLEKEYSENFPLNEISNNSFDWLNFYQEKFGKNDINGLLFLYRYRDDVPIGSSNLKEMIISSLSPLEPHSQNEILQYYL
T1 sequence (P07347 1-238): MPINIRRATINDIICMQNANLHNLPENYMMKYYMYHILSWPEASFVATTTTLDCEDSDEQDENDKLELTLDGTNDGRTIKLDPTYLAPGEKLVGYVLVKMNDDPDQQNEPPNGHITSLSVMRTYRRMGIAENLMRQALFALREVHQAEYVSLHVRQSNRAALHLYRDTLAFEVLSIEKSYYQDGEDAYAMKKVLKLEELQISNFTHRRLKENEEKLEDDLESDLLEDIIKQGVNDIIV
Experimental: as §1, with “-acetylt[…]” for “-acetyltransferase activity”
(§2) In order to compare the relative specificity and activity of the methionine N^α -acetylt[…] (M-N^α -AT) of the present invention with the specificity and activity of the AAA1 N^α -acetyltransferase (N^α -AT) of Lee, F.-J. S., et al., J. Bacteriol. 171, (1989), U.S. Patent Application of John A. Smith, and Fang-Jen S. Lee, filed Oct. 25, 1989, entitled "ISOLATION OF STRAINS OF SAC[…] ALTERED N^α -ACETYLT[…]" (which references have been incorporated herein by reference) synthetic peptides were prepared. These peptides were assessed for their ability to serve as substrates for the two enzymes. In Table 6, the effect of the amino terminal amino acid on activity is investigated; in Table 7, the effect of the penultimate amino terminal amino acid on activity is investigated.

[4] = tested on: methionine N^α -acetyltransferase (M-N^α -AT); assay: Relative activity of M-N^α -AT for N^α -acetylation of synthetic peptides; format: biochemical, Saccharomyces cerevisiae; set-up: tested at 50 µM; settings: Table 7, influence of the penultimate amino terminal residue
Experimental: as §1, with “-acetylt[…]” for “-acetyltransferase activity”
as §2

[5] = Table 7, influence of the penultimate amino terminal residue
[6] = Table 6, influence of the amino terminal residue

effect of reagent on M-N^α AT activity ([1]; concentration not given): nearly complete inactivation | Enzyme Activity (%) ([1]; reagent 0.05 mM): 59% | Enzyme Activity (%) ([1]; reagent 0.5 mM): 0%
Compound: CCOC(=O)OC(=O)OCC [DEPC, diethyl pyrocarbonate]

Compound: [Cl-].[Cl-].[Mg+2] [MgCl2]
effect of ion or salt on M-N^α AT activity [2]: did not affect enzyme activity | Enzyme Activity (%) ([2]; salt 0.1 mM): 105% | Enzyme Activity (%) ([2]; salt 1 mM): 98%

effect of reagent on M-N^α AT activity ([1]; concentration not given): partially inactivated the enzyme | Enzyme Activity (%) ([1]; reagent 1.0 mM): 93% | Enzyme Activity (%) ([1]; reagent 10.0 mM): 62%
Compound: C[S+](C)Cc1cc([N+](=O)[O-])ccc1O.[Br-] [HNBS(CH3)2 -Br, dimethyl-(2-hydroxy-5-nitrobenzyl)sulfonium bromide]

Compound: SEPETQKGVIFYESHGKLEYKDIP (SEPETQKGVIFYESHGKLEYKDIP)
Activity (%) (mean activity ± S.D.) N^a -AT [3, 5]: 121 ± 6% | Activity (%) (mean activity ± S.D.) M-N^a -AT [4]: 0%

Compound: TIPETQKGVIFYESHGKLEYKDIP (TIPETQKGVIFYESHGKLEYKDIP)
Activity (%) (mean activity ± S.D.) N^a -AT [3, 6]: 103 ± 5%

Compound: SVPETQKGVIFYESHGKLEYKDIP (SVPETQKGVIFYESHGKLEYKDIP)
Activity (%) (mean activity ± S.D.) N^a -AT [3, 5]: 123 ± 7% | Activity (%) (mean activity ± S.D.) M-N^a -AT [4]: 0%

Compound: VIPETQKGVIFYESHGKLEYKDIP (VIPETQKGVIFYESHGKLEYKDIP)
Activity (%) (mean activity ± S.D.) N^a -AT [3, 6]: 69 ± 4%

Compound: O=S(=O)([O-])[O-].[Mg+2] [MgSO4]
effect of ion or salt on M-N^α AT activity [2]: did not affect enzyme activity | Enzyme Activity (%) ([2]; salt 0.1 mM): 102% | Enzyme Activity (%) ([2]; salt 1 mM): 97%

Compound: MIPETQKGVIFYESHGKLEYKDIP (MIPETQKGVIFYESHGKLEYKDIP)
Activity (%) (mean activity ± S.D.) N^a -AT [3, 6]: 15 ± 2%

Compound: SMPETQKGVIFYESHGKLEYKDIP (SMPETQKGVIFYESHGKLEYKDIP)
Activity (%) (mean activity ± S.D.) N^a -AT [3, 5]: 140 ± 7% | Activity (%) (mean activity ± S.D.) M-N^a -AT [4]: 0%

Compound: NO [hydroxylamine]
effect of reagent on M-N^α AT activity ([1]; concentration not given): slowly inactivated the enzyme | original enzyme activity recovered after diethyl pyrocarbonate inactivation ([1]; incubation 6 hr at room temperature with […] hydroxylamine, 250000 µM): ~ 50%

Compound: O=S(=O)([O-])[O-].[Fe+2] [FeSO4]
effect of ion or salt on M-N^α AT activity [2]: pronounced and concentration-dependent inhibition | Enzyme Activity (%) ([2]; salt 0.01 mM): 108% | Enzyme Activity (%) ([2]; salt 0.1 mM): 93% | Enzyme Activity (%) ([2]; salt 1 mM): 40%

Compound: [Ca+2].[Cl-].[Cl-] [CaCl2]
effect of divalent cation on M-N^α AT activity [2]: had no effect | effect of ion or salt on M-N^α AT activity [2]: did not affect enzyme activity | Enzyme Activity (%) ([2]; salt 1 mM): 102%

Compound: HIPETQKGVIFYESHGKLEYKDIP (HIPETQKGVIFYESHGKLEYKDIP; also: tritium label)
Activity (%) (mean activity ± S.D.) N^a -AT [3, 6]: 19 ± 2%

Compound: [Cl-].[Cl-].[Co+2] [CoCl2]
effect of ion or salt on M-N^α AT activity [2]: pronounced and concentration-dependent inhibition | Enzyme Activity (%) ([2]; salt 0.01 mM): 106% | Enzyme Activity (%) ([2]; salt 0.1 mM): 95% | Enzyme Activity (%) ([2]; salt 1 mM): 38%

effect of reagent on M-N^α AT activity ([1]; concentration not given): without effect | Enzyme Activity (%) ([1]; reagent 1.0 mM): 100% | Enzyme Activity (%) ([1]; reagent 10.0 mM): 93%
Compound: CC(=O)n1ccnc1 [N-acetylimidazole]

Compound: [Mg+2] [Mg^2+]
effect of divalent cation on M-N^α AT activity [2]: had no effect

Compound: PIPETQKGVIFYESHGKLEYKDIP (PIPETQKGVIFYESHGKLEYKDIP)
Activity (%) (mean activity ± S.D.) N^a -AT [3, 6]: 70 ± 4%

effect of reagent on M-N^α AT activity ([1]; 0.5 mM): partially inactivated the enzyme | effect of reagent on M-N^α AT activity ([1]; 5 mM): completely inactivated the enzyme | Enzyme Activity (%) ([1]; reagent 0.5 mM): 30% | Enzyme Activity (%) ([1]; reagent 5.0 mM): 0%
Compound: O=C1CCC(=O)N1Br [NBS, N-bromosuccinimide]

Compound: [Cl][Cd][Cl] [CdCl2]
effect of ion or salt on M-N^α AT activity ([2]; listed as Cd^2+): pronounced and concentration-dependent inhibition; also recorded: also inhibited | Enzyme Activity (%) ([2]; salt 0.01 mM): 103% | Enzyme Activity (%) ([2]; salt 0.1 mM): 72% | Enzyme Activity (%) ([2]; salt 1 mM): 0%

Compound: [Cl][Mn][Cl] [MnCl2]
effect of divalent cation on M-N^α AT activity [2]: had no effect | effect of ion or salt on M-N^α AT activity [2]: did not affect enzyme activity | Enzyme Activity (%) ([2]; salt 0.1 mM): 103% | Enzyme Activity (%) ([2]; salt 1 mM): 98%

Compound: FIPETQKGVIFYESHGKLEYKDIP (FIPETQKGVIFYESHGKLEYKDIP)
Activity (%) (mean activity ± S.D.) N^a -AT [3, 6]: 9 ± 2%

Compound: YIPETQKGVIFYESHGKLEYKDIP (YIPETQKGVIFYESHGKLEYKDIP)
Activity (%) (mean activity ± S.D.) N^a -AT [3, 6]: 20 ± 2%
